We go through 39 molecules from ChEMBL document CHEMBL3714742, “Pyrimido (4,5-b) indole derivatives” (2003).

Assay [1] has as its system Mus musculus. As to the kind of experiment: Inhibition of anti-CD3 antibody-induced IL2 production in Balb/c mouse dosed intravenously 5 mins before anti-CD3 antibody injection and measured 2 hrs post-challenge by ELISA. Format: functional, organism-based.
In assay [2] the test system is Mus musculus. As to the kind of experiment: Inhibition of anti-CD3 antibody-induced IL4 production in Balb/c mouse dosed intravenously 5 mins before anti-CD3 antibody injection and measured 2 hrs post-challenge by ELISA. The class given is functional, organism-based. Background: An ELISA detects its analyte on a solid surface through an enzyme-linked reagent.
For assay [3], the target named is T1, Dual specificity mitogen-activated protein kinase kinase 7 (Homo sapiens, UniProt O14733).
T1 sequence (O14733 whole entry): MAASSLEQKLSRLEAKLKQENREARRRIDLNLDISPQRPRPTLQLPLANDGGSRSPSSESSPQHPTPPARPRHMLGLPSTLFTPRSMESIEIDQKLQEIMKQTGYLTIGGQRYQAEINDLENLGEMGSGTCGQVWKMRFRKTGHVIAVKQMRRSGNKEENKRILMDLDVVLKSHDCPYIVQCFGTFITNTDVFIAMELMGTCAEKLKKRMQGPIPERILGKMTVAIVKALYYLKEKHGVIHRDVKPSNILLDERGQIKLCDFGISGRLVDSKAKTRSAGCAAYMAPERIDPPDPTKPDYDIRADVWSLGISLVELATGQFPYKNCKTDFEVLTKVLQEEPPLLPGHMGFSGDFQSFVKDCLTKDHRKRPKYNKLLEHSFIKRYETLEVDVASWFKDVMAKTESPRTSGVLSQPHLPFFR
Kind of assay: Inhibition of GST-tagged human MKK7 expressed in Escherichia coli (BL21(DE3) pLysS) co-expressing human MEKK catalytic domain using biotinylated and GST-tagged rat GST-KN-SAPKalpha substrate incubated for 1 hr by time-resolved fluorescence based assay.

The test system of assay [4] is Mus musculus. Kind of assay: Inhibition of anti-CD3 antibody-induced IFNgamma production in Balb/c mouse dosed intravenously 5 mins before anti-CD3 antibody injection and measured 2 hrs post-challenge by ELISA. Format: functional, organism-based.

Calls of active or inactive are those of the source. The rule behind the calls is not given here.

In the case of `Oc1ccc2[nH]c3ncnc(NC4CCCC4)c3c2c1`, the inhibition entry with Mus musculus [1], in the assay on Mus musculus [2] and in the assay with Mus musculus [4] was “Active” each time. Moreover, the half-maximal inhibitory concentration (IC50) (as a rule, the concentration that inhibits the measured activity by half) in assay [3] was under 1000 nM.
With `CCC1CCCCN1c1ncnc2[nH]c3ccc(C(N)=O)cc3c12` (stereo unspecified), the inhibition result with Mus musculus [1], with Mus musculus [2] and with Mus musculus [4] was “Active” throughout. The same molecule yielded an IC50 in assay [3] of under 1000 nM.
In the case of `CC(CO)Nc1ncnc2[nH]c3ccc(O)cc3c12` (stereo unspecified), the inhibition result with Mus musculus [1], in the assay with Mus musculus [2] and in the assay with Mus musculus [4] was “Active” in each case. Also, in assay [3], the half-inhibitory concentration (IC50) is under 1000 nM.
For the molecule `Cc1nc(N2CCCC(CO)C2)c2c(n1)[nH]c1ccc(O)cc12` (stereo unspecified), the inhibition result in the assay with Mus musculus [1], with Mus musculus [2] and in the assay on Mus musculus [4] was “Active” each time. For the same molecule, the IC50 in assay [3] is under 1000 nM.
In the case of `COC(=O)c1ccc2[nH]c3nc(N)nc(N4CCCCC4)c3c2c1`, the inhibition entry in the assay with Mus musculus [1], with Mus musculus [2] and in the assay with Mus musculus [4] was “Active” throughout. The molecule further had an IC50 in assay [3] of under 1000 nM.
In the case of `Nc1nc(N2CCNCC2)c2c(n1)[nH]c1ccc(O)cc12`, the inhibition entry in the assay on Mus musculus [1], with Mus musculus [2] and in the assay with Mus musculus [4] was “Active” in each case. This molecule showed a 50% inhibitory concentration (IC50) in assay [3] of 1000 nM.
For the molecule `Cc1nc(N2CCCCC2CO)c2c(n1)[nH]c1ccc(O)cc12` (stereo unspecified), the inhibition entry in the assay with Mus musculus [1], in the assay with Mus musculus [2] and in the assay with Mus musculus [4] was “Active” each time. The same molecule came in with an IC50 in assay [3] of 1000 nM.
Consider `CCN(CC)c1nc(C)nc2[nH]c3ccc(O)cc3c12`, for which the inhibition entry in the assay on Mus musculus [1], in the assay on Mus musculus [2] and with Mus musculus [4] was “Active” each time. In assay [3], inhibition was half-maximal at 1000 nM (IC50).
As to `NC1CCCN(c2ncnc3[nH]c4ccc(O)cc4c23)C1` (stereo unspecified), the inhibition result in the assay on Mus musculus [1], in the assay on Mus musculus [2] and with Mus musculus [4] was “Active” in each case. In assay [3], this molecule had a half-inhibitory concentration (IC50) of under 1000 nM.
For `Cc1nc(N2CCCCC2C)c2c(n1)[nH]c1ccc(O)cc12` (stereo unspecified), the inhibition result in the assay on Mus musculus [1], with Mus musculus [2] and in the assay with Mus musculus [4] was “Active” each time. The molecule also showed an IC50 in assay [3] of under 1000 nM.
With `Cc1nc(N2CCCC(C)C2)c2c(n1)[nH]c1ccc(O)cc12` (stereo unspecified), the inhibition entry in the assay with Mus musculus [1], in the assay on Mus musculus [2] and in the assay with Mus musculus [4] was “Active” in each case. In assay [3], the half-maximal inhibitory concentration (IC50) was 1000 nM.
Regarding `NC(=O)c1ccc2[nH]c3ncnc(N4CCCC4)c3c2c1`, the inhibition result in the assay with Mus musculus [1], in the assay on Mus musculus [2] and in the assay with Mus musculus [4] was “Active” each time. In assay [3], the half-inhibitory concentration (IC50) is under 1000 nM.
Turning to `NC(=O)c1ccc2[nH]c3ncnc(NCCO)c3c2c1`, the inhibition result in the assay with Mus musculus [1], in the assay with Mus musculus [2] and in the assay on Mus musculus [4] was “Active” throughout. For the same molecule, the IC50 in assay [3] is under 1000 nM.
For the molecule `CC1CCCN(c2ncnc3[nH]c4ccc(C(N)=O)cc4c23)C1` (stereo unspecified), the inhibition entry with Mus musculus [1], in the assay on Mus musculus [2] and in the assay on Mus musculus [4] was “Active” each time. Moreover, the IC50 in assay [3] is under 1000 nM.
For `COc1cc2[nH]c3nc(N)nc(N4CCCCC4)c3c2cc1OC`, the inhibition result in the assay on Mus musculus [1], in the assay with Mus musculus [2] and with Mus musculus [4] was “Active” each time. For the same molecule, 1000 nM corresponded to half-maximal inhibition in assay [3] (IC50).
Take `Nc1nc(N2CCCCC2)c2c(n1)[nH]c1ccc(Cl)cc12`: the inhibition entry in the assay on Mus musculus [1], in the assay with Mus musculus [2] and in the assay on Mus musculus [4] was “Active” throughout. In assay [3], this molecule had an IC50 of 1000 nM.
For `Oc1ccc2[nH]c3ncnc(N4CCNCC4)c3c2c1`, the inhibition entry in the assay with Mus musculus [1], in the assay on Mus musculus [2] and in the assay on Mus musculus [4] was “Active” each time. The concentration for half-maximal inhibition (IC50) in assay [3] was under 1000 nM.
For `OCC1CCCCN1c1ncnc2[nH]c3ccc(O)cc3c12` (stereo unspecified), the inhibition entry in the assay with Mus musculus [1], in the assay on Mus musculus [2] and with Mus musculus [4] was “Active” throughout. In assay [3], the IC50 is under 1000 nM.
As for `COC(=O)c1ccc2[nH]c3nc(C)nc(N4CCCCC4)c3c2c1`, the inhibition entry with Mus musculus [1], with Mus musculus [2] and in the assay on Mus musculus [4] was “Active” each time. In addition, the IC50 in assay [3] was under 1000 nM.
For `CNC1CCN(c2ncnc3[nH]c4ccc(C(N)=O)cc4c23)C1` (stereo unspecified), the inhibition entry in the assay on Mus musculus [1], in the assay with Mus musculus [2] and in the assay on Mus musculus [4] was “Active” throughout. In assay [3], this molecule showed an IC50 of under 1000 nM.
Consider `OCC1CCN(c2ncnc3[nH]c4ccc(O)cc4c23)CC1`, for which the inhibition result in the assay with Mus musculus [1], in the assay on Mus musculus [2] and in the assay on Mus musculus [4] was “Active” throughout. In addition, in assay [3], the IC50 was under 1000 nM.
For the molecule `CC(C)(C)OC(=O)NC1CCCN(c2ncnc3[nH]c4ccc(C(N)=O)cc4c23)C1` (stereo unspecified), the inhibition entry in the assay on Mus musculus [1], with Mus musculus [2] and with Mus musculus [4] was “Active” each time. Also, the half-maximal inhibitory concentration (IC50) in assay [3] was under 1000 nM.
Consider `N[C@H]1CCN(c2ncnc3[nH]c4ccc(O)cc4c23)C1`, for which the inhibition result in the assay on Mus musculus [1], in the assay with Mus musculus [2] and in the assay on Mus musculus [4] was “Active” in each case. In assay [3], the half-inhibitory concentration (IC50) was under 1000 nM.
In the case of `C[C@H](CO)Nc1ncnc2[nH]c3ccc(O)cc3c12`, the inhibition result in the assay on Mus musculus [1], in the assay on Mus musculus [2] and in the assay with Mus musculus [4] was “Active” each time. Besides, the IC50 in assay [3] is under 1000 nM.
Regarding `Nc1nc(N2CCCC(O)C2)c2c(n1)[nH]c1ccc(O)cc12` (stereo unspecified), the inhibition result in the assay on Mus musculus [1], with Mus musculus [2] and with Mus musculus [4] was “Active” each time. This molecule displayed a half-maximal inhibitory concentration (IC50) in assay [3] of under 1000 nM.
In the case of `CC(=O)NC1CCN(c2ncnc3[nH]c4ccc(C(N)=O)cc4c23)CC1`, the inhibition result in the assay with Mus musculus [1], in the assay with Mus musculus [2] and in the assay with Mus musculus [4] was “Active” throughout. In addition, the concentration for half-maximal inhibition (IC50) in assay [3] was under 1000 nM.
On to `Oc1ccc2[nH]c3ncnc(N4CCCCC4)c3c2c1`, for which the inhibition entry in the assay on Mus musculus [1], in the assay on Mus musculus [2] and in the assay on Mus musculus [4] was “Active” throughout. The same molecule registered an IC50 in assay [3] of under 1000 nM.
Take `Nc1nc(N2CCC3(CC2)OCCO3)c2c(n1)[nH]c1ccc(O)cc12`: the inhibition result in the assay on Mus musculus [1], in the assay on Mus musculus [2] and in the assay with Mus musculus [4] was “Active” throughout. This molecule also showed a half-inhibitory concentration (IC50) in assay [3] of under 1000 nM.
In the case of `COC1CCN(c2ncnc3[nH]c4ccc(O)cc4c23)CC1`, the inhibition result in the assay with Mus musculus [1], in the assay on Mus musculus [2] and in the assay on Mus musculus [4] was “Active” in each case. In assay [3], the IC50 was under 1000 nM.
Regarding `NC(=O)c1ccc2[nH]c3ncnc(N4CCC(CCO)CC4)c3c2c1`, the inhibition entry in the assay with Mus musculus [1], in the assay with Mus musculus [2] and with Mus musculus [4] was “Active” each time. In assay [3], this molecule registered an IC50 of under 1000 nM.
Regarding `Nc1nc(NCCO)c2c(n1)[nH]c1ccc(O)cc12`, the inhibition result in the assay with Mus musculus [1], in the assay with Mus musculus [2] and in the assay on Mus musculus [4] was “Active” throughout. The molecule also had a half-maximal inhibitory concentration (IC50) in assay [3] of under 1000 nM.
On to `NC(=O)c1ccc2[nH]c3ncnc(N4CCC(CO)CC4)c3c2c1`, for which the inhibition entry with Mus musculus [1], in the assay on Mus musculus [2] and in the assay on Mus musculus [4] was “Active” each time. The molecule also registered a concentration for half-maximal inhibition (IC50) in assay [3] of under 1000 nM.
As for `Oc1ccc2[nH]c3ncnc(NC4CCCCC4)c3c2c1`, the inhibition result with Mus musculus [1], in the assay on Mus musculus [2] and with Mus musculus [4] was “Active” in each case. Also, the 50% inhibitory concentration (IC50) in assay [3] was under 1000 nM.
On to `NCCCNc1ncnc2[nH]c3ccc(C(N)=O)cc3c12`, for which the inhibition entry in the assay with Mus musculus [1], with Mus musculus [2] and in the assay on Mus musculus [4] was “Active” each time. The same molecule registered a concentration for half-maximal inhibition (IC50) in assay [3] of under 1000 nM.
With `CC1CCCCN1c1nc(N)nc2[nH]c3ccc(O)cc3c12` (stereo unspecified), the inhibition entry with Mus musculus [1], in the assay on Mus musculus [2] and in the assay on Mus musculus [4] was “Active” each time. The IC50 in assay [3] was under 1000 nM.
Consider `Nc1nc(N2CCOCC2)c2c(n1)[nH]c1ccc(O)cc12`, for which the inhibition result in the assay with Mus musculus [1], with Mus musculus [2] and in the assay with Mus musculus [4] was “Active” each time. Further, the IC50 in assay [3] is under 1000 nM.
As to `Oc1ccc2[nH]c3ncnc(N4CCCC4)c3c2c1`, the inhibition entry in the assay on Mus musculus [1], in the assay with Mus musculus [2] and in the assay on Mus musculus [4] was “Active” in each case. For the same molecule, the IC50 in assay [3] is under 1000 nM.
Regarding `COCCNc1ncnc2[nH]c3ccc(O)cc3c12`, the inhibition entry in the assay on Mus musculus [1], in the assay on Mus musculus [2] and in the assay with Mus musculus [4] was “Active” each time. For the same molecule, in assay [3], the IC50 is under 1000 nM.
As for `Cc1nc(N2CCC(CO)CC2)c2c(n1)[nH]c1ccc(O)cc12`, the inhibition entry in the assay on Mus musculus [1], with Mus musculus [2] and in the assay with Mus musculus [4] was “Active” in each case. The molecule also had a 50% inhibitory concentration (IC50) in assay [3] of 1000 nM.
